Earlier results on 2 molecules are cited in patent US20060251786A1 (priority 2005, published 2006).

The conditions of this series: scale of 1-6; Gosselin et al., 5th ed, 1984.

Turning to `O=c1ccc2ccccc2o1` [coumarin, 1,2-benzopyrone], the toxicity level is reported as 4. For the molecule `CN1CCCC1c1cccnc1` (centres unmarked) [nicotine], the toxicity level is 6.
